{"source": "patent US9340590B2", "about": "(priority 2011, dated 2016)", "test_in_all_cases": "cell-based", "key": {"hNav1.7 [1]": {"target": "T1, hNav1.7 (Homo sapiens, UniProt Q15858)"}, "hNav1.7 [2]": {"target": "T1, hNav1.7", "type": "cell-based", "settings": "IonWorks Quattro, use-dependent block, hNav1.7; read-out: IWQ Use Nav1.7"}, "hNav1.5": {"target": "hNav1.5 (Homo sapiens, UniProt Q14524)", "sequence (Q14524 whole entry, looked up)": "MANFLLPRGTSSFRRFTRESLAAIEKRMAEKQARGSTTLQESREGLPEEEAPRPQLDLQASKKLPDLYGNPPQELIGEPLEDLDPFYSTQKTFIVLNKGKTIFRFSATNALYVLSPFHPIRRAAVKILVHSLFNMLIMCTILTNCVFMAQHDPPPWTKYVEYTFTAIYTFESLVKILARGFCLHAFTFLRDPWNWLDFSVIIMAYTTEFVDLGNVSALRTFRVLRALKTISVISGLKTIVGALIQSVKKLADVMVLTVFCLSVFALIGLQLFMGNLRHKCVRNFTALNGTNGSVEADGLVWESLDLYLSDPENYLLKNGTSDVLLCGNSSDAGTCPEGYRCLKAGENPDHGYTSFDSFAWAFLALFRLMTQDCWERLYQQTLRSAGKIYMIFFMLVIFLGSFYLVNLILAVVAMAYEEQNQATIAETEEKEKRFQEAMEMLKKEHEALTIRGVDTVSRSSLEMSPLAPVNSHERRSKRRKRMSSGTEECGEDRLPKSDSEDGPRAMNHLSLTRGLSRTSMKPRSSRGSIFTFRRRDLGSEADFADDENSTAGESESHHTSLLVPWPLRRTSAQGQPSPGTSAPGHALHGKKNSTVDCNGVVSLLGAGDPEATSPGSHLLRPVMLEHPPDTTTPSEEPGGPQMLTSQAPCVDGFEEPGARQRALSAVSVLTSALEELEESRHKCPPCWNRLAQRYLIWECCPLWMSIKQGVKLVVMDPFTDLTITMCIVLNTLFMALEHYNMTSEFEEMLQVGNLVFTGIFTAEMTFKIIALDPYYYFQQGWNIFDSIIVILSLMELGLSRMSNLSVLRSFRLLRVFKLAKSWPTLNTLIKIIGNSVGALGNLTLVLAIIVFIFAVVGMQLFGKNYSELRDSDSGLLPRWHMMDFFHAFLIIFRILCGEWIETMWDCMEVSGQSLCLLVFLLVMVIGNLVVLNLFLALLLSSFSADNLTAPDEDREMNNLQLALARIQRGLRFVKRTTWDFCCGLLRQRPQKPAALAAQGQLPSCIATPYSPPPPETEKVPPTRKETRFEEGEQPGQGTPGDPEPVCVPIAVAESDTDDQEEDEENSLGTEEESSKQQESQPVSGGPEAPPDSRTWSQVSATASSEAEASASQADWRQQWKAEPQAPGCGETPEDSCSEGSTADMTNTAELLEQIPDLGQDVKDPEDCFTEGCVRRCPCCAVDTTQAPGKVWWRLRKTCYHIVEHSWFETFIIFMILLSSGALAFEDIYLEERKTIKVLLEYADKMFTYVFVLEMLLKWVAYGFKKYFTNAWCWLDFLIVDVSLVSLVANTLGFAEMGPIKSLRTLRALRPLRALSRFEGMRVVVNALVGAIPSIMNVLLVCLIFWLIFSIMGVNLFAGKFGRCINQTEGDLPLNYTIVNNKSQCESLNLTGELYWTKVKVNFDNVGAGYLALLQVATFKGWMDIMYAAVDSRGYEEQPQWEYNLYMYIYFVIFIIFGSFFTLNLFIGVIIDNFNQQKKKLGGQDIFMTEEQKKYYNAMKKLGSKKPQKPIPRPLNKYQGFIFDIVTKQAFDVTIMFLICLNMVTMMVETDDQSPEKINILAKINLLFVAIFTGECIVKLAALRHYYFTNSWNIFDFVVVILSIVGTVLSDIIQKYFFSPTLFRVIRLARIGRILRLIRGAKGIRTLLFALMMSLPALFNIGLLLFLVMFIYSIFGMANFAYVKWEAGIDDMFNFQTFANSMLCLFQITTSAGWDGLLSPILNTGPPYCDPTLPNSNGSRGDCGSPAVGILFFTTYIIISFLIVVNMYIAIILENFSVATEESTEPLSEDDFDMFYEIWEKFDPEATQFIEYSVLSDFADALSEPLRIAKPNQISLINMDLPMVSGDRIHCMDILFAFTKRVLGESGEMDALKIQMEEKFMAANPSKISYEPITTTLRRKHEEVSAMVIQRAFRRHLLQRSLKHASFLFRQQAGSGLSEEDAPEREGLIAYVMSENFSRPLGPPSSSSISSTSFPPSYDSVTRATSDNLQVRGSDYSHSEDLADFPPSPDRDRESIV", "settings": "IonWorks Quattro, use-dependent block, hNav1.5; read-out: IWQ Use Nav1.5"}, "hNav1.3": {"target": "hNav1.3 (Homo sapiens, UniProt Q9NY46)", "sequence (Q9NY46 whole entry, looked up)": "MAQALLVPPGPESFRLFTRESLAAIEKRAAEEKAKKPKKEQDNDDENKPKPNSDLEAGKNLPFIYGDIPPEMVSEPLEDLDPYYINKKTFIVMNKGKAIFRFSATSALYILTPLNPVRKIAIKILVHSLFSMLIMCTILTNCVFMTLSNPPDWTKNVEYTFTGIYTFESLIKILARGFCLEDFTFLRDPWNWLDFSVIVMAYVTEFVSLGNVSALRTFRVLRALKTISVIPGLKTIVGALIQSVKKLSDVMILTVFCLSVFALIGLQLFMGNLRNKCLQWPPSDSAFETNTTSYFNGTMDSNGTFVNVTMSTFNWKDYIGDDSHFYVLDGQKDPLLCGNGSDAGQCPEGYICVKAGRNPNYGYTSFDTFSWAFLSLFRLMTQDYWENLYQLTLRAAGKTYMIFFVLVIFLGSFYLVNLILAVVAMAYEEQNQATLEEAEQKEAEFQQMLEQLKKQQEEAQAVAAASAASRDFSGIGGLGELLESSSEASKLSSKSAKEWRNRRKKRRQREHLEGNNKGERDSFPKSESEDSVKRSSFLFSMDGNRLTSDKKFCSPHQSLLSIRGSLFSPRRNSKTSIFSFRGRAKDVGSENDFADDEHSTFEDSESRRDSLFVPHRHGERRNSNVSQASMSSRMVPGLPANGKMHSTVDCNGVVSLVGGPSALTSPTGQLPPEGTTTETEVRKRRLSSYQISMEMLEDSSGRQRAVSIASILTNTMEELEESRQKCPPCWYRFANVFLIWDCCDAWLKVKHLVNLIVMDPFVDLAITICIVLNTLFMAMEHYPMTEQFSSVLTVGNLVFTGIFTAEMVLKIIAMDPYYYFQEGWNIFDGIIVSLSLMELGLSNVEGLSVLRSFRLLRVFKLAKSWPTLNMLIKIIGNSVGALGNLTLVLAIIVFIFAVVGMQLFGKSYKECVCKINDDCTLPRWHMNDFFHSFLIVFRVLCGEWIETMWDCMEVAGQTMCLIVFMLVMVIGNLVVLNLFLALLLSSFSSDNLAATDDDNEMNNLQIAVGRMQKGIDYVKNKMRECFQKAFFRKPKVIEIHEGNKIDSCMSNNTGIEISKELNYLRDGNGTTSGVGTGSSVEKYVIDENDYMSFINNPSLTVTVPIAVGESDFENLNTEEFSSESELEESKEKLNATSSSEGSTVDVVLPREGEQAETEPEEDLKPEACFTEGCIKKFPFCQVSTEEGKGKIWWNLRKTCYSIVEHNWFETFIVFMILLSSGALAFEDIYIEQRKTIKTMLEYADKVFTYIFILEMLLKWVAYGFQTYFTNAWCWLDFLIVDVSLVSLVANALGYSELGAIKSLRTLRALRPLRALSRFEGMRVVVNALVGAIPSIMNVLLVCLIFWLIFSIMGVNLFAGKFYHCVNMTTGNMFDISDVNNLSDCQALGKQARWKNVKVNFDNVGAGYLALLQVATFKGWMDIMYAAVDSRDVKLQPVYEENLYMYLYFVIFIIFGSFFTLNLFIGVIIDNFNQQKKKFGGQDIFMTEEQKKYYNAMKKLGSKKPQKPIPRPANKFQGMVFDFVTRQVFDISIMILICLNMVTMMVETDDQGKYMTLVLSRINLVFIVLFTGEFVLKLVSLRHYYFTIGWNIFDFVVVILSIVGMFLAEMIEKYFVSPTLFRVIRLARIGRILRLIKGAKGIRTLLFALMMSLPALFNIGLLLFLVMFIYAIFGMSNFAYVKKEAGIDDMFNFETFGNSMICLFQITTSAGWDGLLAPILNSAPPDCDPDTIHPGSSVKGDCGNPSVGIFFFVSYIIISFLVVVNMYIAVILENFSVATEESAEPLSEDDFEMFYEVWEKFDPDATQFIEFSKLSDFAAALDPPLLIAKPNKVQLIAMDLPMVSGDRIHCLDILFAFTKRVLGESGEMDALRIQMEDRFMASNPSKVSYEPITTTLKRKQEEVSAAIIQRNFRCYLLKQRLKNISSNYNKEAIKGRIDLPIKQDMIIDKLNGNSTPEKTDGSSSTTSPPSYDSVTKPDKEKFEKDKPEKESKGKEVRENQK", "settings": "IonWorks Quattro, use-dependent block, hNav1.3; read-out: IWQ Use Nav1.3"}}, "note": "Positions of bridges follow the written chain, without caps; N, C: chain ends. Non-standard residues stand in square brackets, D forms with d. Residues, ends and D or L forms follow the SMILES beside them. *: point of attachment. Biotin = O=C1N[C@H]2[C@H](CS[C@H]2CCCCC(=O)*)N1; Abu = CC[C@H](N)C(=O)O; Ahx = NCCCCCC(=O)O"}
{"smiles": "CC[C@@H]1NC(=O)CNC(=O)[C@H](CC(C)C)NC(=O)[C@@H](NC(=O)[C@H](CC(=O)O)NC(=O)CCCCCNC(=O)CCCC[C@@H]2SC[C@@H]3NC(=O)N[C@@H]32)CSSC[C@@H]2NC(=O)[C@@H]3CSSC[C@@H](C(=O)N[C@@H](CCCCN)C(=O)N[C@@H](Cc4ccc(O)cc4)C(=O)N[C@H](C(=O)N[C@@H](Cc4ccccc4)C(N)=O)C(C)C)NC(=O)[C@H](Cc4c[nH]c5ccccc45)NC(=O)[C@H](CCCNC(=N)N)NC(=O)[C@H](Cc4c[nH]cn4)NC(=O)[C@H]([C@@H](C)O)NC(=O)[C@H](CCCNC(=N)N)NC(=O)[C@H](CO)NC(=O)[C@H](CSSC[C@H](NC(=O)[C@H](CCCCN)NC(=O)[C@H](CCCNC(=N)N)NC(=O)[C@H](CC(C)C)NC1=O)C(=O)N[C@@H]([C@@H](C)CC)C(=O)N1CCC[C@H]1C(=O)N[C@@H](CC(=O)O)C(=O)N[C@@H](CC)C(=O)N[C@@H](CC(=O)O)C(=O)N[C@@H](CCCCN)C(=O)N3)NC(=O)[C@H](C(C)C)NC(=O)[C@H](CC(C)C)NC(=O)[C@H](CC(N)=O)NC(=O)[C@@H]1CCCN1C(=O)[C@H](CCCNC(=N)N)NC2=O", "note": "({Biotin-Ahx}-DCLG[Abu]LRKCIPD[Abu]DKCCRPNLVCSRTHRWCKYVF-NH2; disulfide 2-17, 9-23, 16-30)", "values": [{"measurement": "Nav1.4/Nav1.7 Use", "setting": "hNav1.7 [1]", "value": 2482}, {"measurement": "Nav1.5/Nav1.7 Use", "setting": "hNav1.7 [1]", "value": ">909"}]}
{"smiles": "CC[C@H](C)[C@@H]1NC(=O)[C@@H]2CSSC[C@@H]3NC(=O)[C@H](C(C)C)NC(=O)[C@H](CC(C)C)NC(=O)[C@H](CC(N)=O)NC(=O)[C@@H]4CCCN4C(=O)[C@H](CCCNC(=N)N)NC(=O)[C@H](CSSC[C@H](NC(=O)[C@@H](N)CC(=O)O)C(=O)N[C@@H](CC(C)C)C(=O)NCC(=O)N[C@@H](C)C(=O)N[C@@H](CC(C)C)C(=O)N[C@@H](CCCNC(=N)N)C(=O)N[C@@H](CCCCN)C(=O)N2)NC(=O)[C@H](CSSC[C@@H](C(=O)N[C@@H](CCCCN)C(=O)N[C@@H](Cc2ccc(O)cc2)C(=O)N[C@H](C(=O)N[C@@H](Cc2ccccc2)C(=O)O)C(C)C)NC(=O)[C@H](Cc2c[nH]c4ccccc24)NC(=O)[C@H](CCCNC(=N)N)NC(=O)[C@H](Cc2c[nH]cn2)NC(=O)[C@H]([C@@H](C)O)NC(=O)[C@H](CCCNC(=N)N)NC(=O)[C@H](CO)NC3=O)NC(=O)[C@H](CCCCN)NC(=O)[C@H](CC(=O)O)NC(=O)[C@H](CCC(N)=O)NC(=O)[C@H](CC(=O)O)NC(=O)[C@@H]2CCCN2C1=O", "note": "[compound 869] (H-DCLGALRKCIPDQDKCCRPNLVCSRTHRWCKYVF-OH; disulfide 2-17, 9-23, 16-30)", "values": [{"measurement": "IC50", "setting": "hNav1.7 [2]", "value": "> 5", "unit": "µM"}, {"measurement": "IC50", "setting": "hNav1.5", "value": "> 5", "unit": "µM"}, {"measurement": "IC50", "setting": "hNav1.3", "value": "> 5", "unit": "µM"}]}
{"smiles": "CC[C@H](C)[C@@H]1NC(=O)[C@@H]2CSSC[C@@H]3NC(=O)[C@H](C(C)C)NC(=O)[C@H](CC(C)C)NC(=O)[C@H](CC(N)=O)NC(=O)[C@@H]4CCCN4C(=O)[C@H](CCCNC(=N)N)NC(=O)[C@H](CSSC[C@H](NC(=O)[C@@H](N)CC(=O)O)C(=O)N[C@@H](CC(C)C)C(=O)NCC(=O)N[C@@H](C)C(=O)N[C@@H](CC(C)C)C(=O)N[C@@H](CCCNC(=N)N)C(=O)N[C@@H](CCCCN)C(=O)N2)NC(=O)[C@H](CSSC[C@@H](C(=O)N[C@@H](CCCCN)C(=O)N[C@@H](Cc2ccc(O)cc2)C(=O)N[C@H](C(=O)N[C@@H](Cc2ccccc2)C(=O)O)C(C)C)NC(=O)[C@H](Cc2c[nH]c4ccccc24)NC(=O)[C@H](CCCNC(=N)N)NC(=O)[C@H](Cc2c[nH]cn2)NC(=O)[C@H]([C@@H](C)O)NC(=O)[C@H](CCCNC(=N)N)NC(=O)[C@H](CO)NC3=O)NC(=O)[C@H](CCCCN)NC(=O)[C@H](CC(=O)O)NC(=O)[C@H](CCCNC(=N)N)NC(=O)[C@H](CC(=O)O)NC(=O)[C@@H]2CCCN2C1=O", "note": "[compound 870] (H-DCLGALRKCIPDRDKCCRPNLVCSRTHRWCKYVF-OH; disulfide 2-17, 9-23, 16-30)", "values": [{"measurement": "IC50", "setting": "hNav1.7 [2]", "value": "> 5", "unit": "µM"}, {"measurement": "IC50", "setting": "hNav1.5", "value": "> 5", "unit": "µM"}, {"measurement": "IC50", "setting": "hNav1.3", "value": 1.4, "unit": "µM"}]}
{"smiles": "CC[C@H](C)[C@@H]1NC(=O)[C@@H]2CSSC[C@@H]3NC(=O)[C@H](C(C)C)NC(=O)[C@H](CC(C)C)NC(=O)[C@H](CC(N)=O)NC(=O)[C@@H]4CCCN4C(=O)[C@H](CCCNC(=N)N)NC(=O)[C@H](CSSC[C@H](NC(=O)[C@@H](N)CC(=O)O)C(=O)N[C@@H](CC(C)C)C(=O)NCC(=O)N[C@@H](C)C(=O)N[C@@H](CC(C)C)C(=O)N[C@@H](CCCNC(=N)N)C(=O)N[C@@H](CCCCN)C(=O)N2)NC(=O)[C@H](CSSC[C@@H](C(=O)N[C@@H](CCCCN)C(=O)N[C@@H](Cc2ccc(O)cc2)C(=O)N[C@H](C(=O)N[C@@H](Cc2ccccc2)C(=O)O)C(C)C)NC(=O)[C@H](Cc2c[nH]c4ccccc24)NC(=O)[C@H](CCCNC(=N)N)NC(=O)[C@H](Cc2c[nH]cn2)NC(=O)[C@H]([C@@H](C)O)NC(=O)[C@H](CCCNC(=N)N)NC(=O)[C@H](CO)NC3=O)NC(=O)[C@H](CCCCN)NC(=O)[C@H](CC(=O)O)NC(=O)[C@H](CO)NC(=O)[C@H](CC(=O)O)NC(=O)[C@@H]2CCCN2C1=O", "note": "[compound 871] (H-DCLGALRKCIPDSDKCCRPNLVCSRTHRWCKYVF-OH; disulfide 2-17, 9-23, 16-30)", "values": [{"measurement": "IC50", "setting": "hNav1.7 [2]", "value": "> 5", "unit": "µM"}, {"measurement": "IC50", "setting": "hNav1.5", "value": "> 5", "unit": "µM"}, {"measurement": "IC50", "setting": "hNav1.3", "value": "> 5", "unit": "µM"}]}
{"smiles": "CC[C@H](C)[C@@H]1NC(=O)[C@@H]2CSSC[C@@H]3NC(=O)[C@H](C(C)C)NC(=O)[C@H](CC(C)C)NC(=O)[C@H](CC(N)=O)NC(=O)[C@@H]4CCCN4C(=O)[C@H](CCCNC(=N)N)NC(=O)[C@H](CSSC[C@H](NC(=O)[C@@H](N)CC(=O)O)C(=O)N[C@@H](CC(C)C)C(=O)NCC(=O)N[C@@H](C)C(=O)N[C@@H](CC(C)C)C(=O)N[C@@H](CCCNC(=N)N)C(=O)N[C@@H](CCCCN)C(=O)N2)NC(=O)[C@H](CSSC[C@@H](C(=O)N[C@@H](CCCCN)C(=O)N[C@@H](Cc2ccc(O)cc2)C(=O)N[C@H](C(=O)N[C@@H](Cc2ccccc2)C(=O)O)C(C)C)NC(=O)[C@H](Cc2c[nH]c4ccccc24)NC(=O)[C@H](CCCNC(=N)N)NC(=O)[C@H](Cc2c[nH]cn2)NC(=O)[C@H]([C@@H](C)O)NC(=O)[C@H](CCCNC(=N)N)NC(=O)[C@H](CO)NC3=O)NC(=O)[C@H](CCCCN)NC(=O)[C@H](CC(=O)O)NC(=O)[C@H](C(C)C)NC(=O)[C@H](CC(=O)O)NC(=O)[C@@H]2CCCN2C1=O", "note": "[compound 872] (H-DCLGALRKCIPDVDKCCRPNLVCSRTHRWCKYVF-OH; disulfide 2-17, 9-23, 16-30)", "values": [{"measurement": "IC50", "setting": "hNav1.7 [2]", "value": "> 5", "unit": "µM"}, {"measurement": "IC50", "setting": "hNav1.5", "value": "> 5", "unit": "µM"}, {"measurement": "IC50", "setting": "hNav1.3", "value": "> 5", "unit": "µM"}]}
{"smiles": "CC[C@H](C)[C@@H]1NC(=O)[C@@H]2CSSC[C@@H]3NC(=O)[C@H](C(C)C)NC(=O)[C@H](CC(C)C)NC(=O)[C@H](CC(N)=O)NC(=O)[C@@H]4CCCN4C(=O)[C@H](CCCNC(=N)N)NC(=O)[C@H](CSSC[C@H](NC(=O)[C@@H](N)CC(=O)O)C(=O)N[C@@H](CC(C)C)C(=O)NCC(=O)N[C@@H](C)C(=O)N[C@@H](CC(C)C)C(=O)N[C@@H](CCCNC(=N)N)C(=O)N[C@@H](CCCCN)C(=O)N2)NC(=O)[C@H](CSSC[C@@H](C(=O)N[C@@H](CCCCN)C(=O)N[C@@H](Cc2ccc(O)cc2)C(=O)N[C@H](C(=O)N[C@@H](Cc2ccccc2)C(=O)O)C(C)C)NC(=O)[C@H](Cc2c[nH]c4ccccc24)NC(=O)[C@H](CCCNC(=N)N)NC(=O)[C@H](Cc2c[nH]cn2)NC(=O)[C@H]([C@@H](C)O)NC(=O)[C@H](CCCNC(=N)N)NC(=O)[C@H](CO)NC3=O)NC(=O)[C@H](CCCCN)NC(=O)[C@H](CC(=O)O)NC(=O)[C@H](Cc2ccc(O)cc2)NC(=O)[C@H](CC(=O)O)NC(=O)[C@@H]2CCCN2C1=O", "note": "[compound 873] (H-DCLGALRKCIPDYDKCCRPNLVCSRTHRWCKYVF-OH; disulfide 2-17, 9-23, 16-30)", "values": [{"measurement": "IC50", "setting": "hNav1.7 [2]", "value": 4.8, "unit": "µM"}, {"measurement": "IC50", "setting": "hNav1.5", "value": "> 5", "unit": "µM"}, {"measurement": "IC50", "setting": "hNav1.3", "value": "> 5", "unit": "µM"}]}
